Experiments:
[1] = Three-day MTT cell growth inhibition assay, 1532NPTX; format: cell-based, human; conditions: human, 1532NPTX cells
1532NPTX = experiment: as above; format: cell-based, human; conditions: Homo sapiens, 72 h, 3 days
NCI-60 cell line panel = experiment: NCI 60 cell line panel screening; format: cell-based, human; conditions: initial screening per DTP protocol
Experimental: panel. KBU2046 was submitted to the Developmental Therapeutics Program (DTP) of the US National Cancer Institute (NCI), underwent initial screening across the NCI 60 cell line panel per DTP protocol 1, and the resultant COMPARE diagram is depicted above. Based upon its lack of […]
Supplementary Figure 3. […] Estrogen […]
receptor positive MCF-7 cells were cultured under hormone free conditions transfected pERE-Luc or empty control vector, along with constitutive active β-gal, grown under estrogen-free conditions, and pre-treated for 24 hours with nanomolar concentrations of estradiol, or with micromolar concentrations of genistein or KBU2046, as indicated. Luciferase activity was measured, normalized to that of β-gal, and values expressed as the percent of untreated vector control cells. Values are the mean±SD of a single experiment, with similar results seen in a separate repeat experiment, both in replicates of N=2.
(also on this page, place not known: luciferase/B-gal activity, % untreated vector control)
(1 picture or pasted object on this page, not shown here)

[2] = target: T1, Isovaleryl-CoA dehydrogenase (Homo sapiens, UniProt P26440); experiment: ProtoArray binding, Isovaleryl-CoA dehydrogenase; conditions: 10 fold excess free KBU2046
T1 construct: purchased Invitrogen
T1 sequence (P26440 33-426): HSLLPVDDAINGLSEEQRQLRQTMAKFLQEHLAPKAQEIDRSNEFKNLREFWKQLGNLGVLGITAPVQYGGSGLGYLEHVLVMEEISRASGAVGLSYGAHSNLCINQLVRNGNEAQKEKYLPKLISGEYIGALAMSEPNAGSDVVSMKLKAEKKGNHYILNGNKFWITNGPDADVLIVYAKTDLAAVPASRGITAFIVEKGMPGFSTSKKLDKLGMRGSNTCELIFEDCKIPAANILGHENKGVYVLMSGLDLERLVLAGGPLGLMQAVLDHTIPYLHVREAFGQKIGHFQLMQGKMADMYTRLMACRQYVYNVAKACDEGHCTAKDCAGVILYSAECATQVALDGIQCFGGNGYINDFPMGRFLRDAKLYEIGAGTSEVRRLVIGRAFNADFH
Experimental: The ProtoArray® assay, using the Human Protein Microarray platform, was performed by Invitrogen. […]
followed by detection with FITC-streptavidin, and visualization by fluorescent microscopy (with equal exposure times). (d) Protein array hybridization. KBU2046-biotin was hybridized to ProtoArray® Human Protein Microarray’s at 0.5 and 10 µM with and without 10 fold excess free KBU2046. We first sought proteins that met the following criteria, and did so at both 0.5 and 10 µM concentrations of KBU2046-biotin (in the absence of free KBU2046): Z-Score greater than 2.5, Z-Factor greater than 0.5, CI P-value less than 0.05, negative control value <2,000 (relative fluorescence units; RFUs), and a signal/negative control signal of >10 and >5 for 10 µM and 0.5 µM conditions, respectively. This yielded 3 proteins, shown in table, for an initial hit rate of 0.03%. We then required free KBU2046 to inhibit binding by >75%. Of the two remaining candidates, we eliminated isovaleryl-CoA dehydrogenase (ICD). Its binding signal doubled on […]
suspected non-specific binding by the biotin-linker moiety. We deemed cysteine and glycine-rich protein 1 (CSRP1) our top priority protein, though its binding characteristics at 10 µM + free KBU2046 were similar to ICD, albeit not as extreme. We thus evaluated whether KBU2046- […]
There were two additional notable findings from protein array studies. […]

[3] = Systemic off-target effects, histologic examination after 35 days; format: in vivo
Experimental: Histologic examination of tissue: Organs of athymic male mice stained with hematoxylin and eosin, trichrome, or giemsa were microscopically examined by a mouse pathologist (L.L.) in a blinded fashion, and toxicity scored using an established semi-quantitative histological scoring system[38] (Supplementary Fig. 8). The following clinical chemistry parameters were measured in blood of CD1 male and female mice by Charles River Research Animal Diagnostic Services: cholesterol, triglycerides, alanine aminotransferase, aspartate aminotransferase, total bilirubin, glucose, phosphorus, total protein, calcium, blood urea nitrogen (BUN), creatinine, albumin, Na, K, Cl, white blood cells (with differential), red blood cells, hemoglobin, and platelets.
(§1) Supplementary Figure 7. KBU2046 treatment is not associated with systemic off-target effects. For histologic examination of tissue, cohorts of N=5 male 6-8 week old Balb/c athymic […]
KBU2046 as described in manuscript Figure 2a. […] Organs were examined for damage using a semi-quantitative histological scoring system, as described 4. […]

[4] = Single intravenous dose organ function study; format: in vivo; conditions: CD1 mice, single iv 15, 75 or 125 mg/kg, day 8 and 14
Text: as §1
KBU2046 as described in manuscript Figure 2a. After 35 days of treatment, the following organs were harvested at necropsy, and stained with H&E (alternative staining methods as indicated): heart, lungs, esophagus, stomach, colon, small intestine, liver (Trichrome staining), kidneys (Trichrome staining), adrenals, bladder, prostate, spleen, pancreas, brain, testes, and bone marrow and peripheral blood (Giemsa staining). Organs were examined for damage using a semi-quantitative histological scoring system, as described 4. […]
except in the livers of both control and treatment mice. Changes in the liver observed in control mice were not increased by KBU2046 treatment. […]
gm/mouse, this translated to 5-7 week old females and 4.5-5.5 week old males. […] On day 8 and 14, all critical organs were weighed, and the following parameters measured in blood: cholesterol, triglycerides, alanine aminotransferase (ALT), aspartate aminotransferase (AST), total bilirubin, glucose, phosphorus, total protein, calcium, blood urea nitrogen (BUN), creatinine, albumin, Na, K, Cl, white blood cells (with differential), red blood cells, hemoglobin, […]

O=C1c2ccccc2OCC1c1ccc(F)cc1 (racemic) [KBU2046, (±)-3(4-fluorophenyl)chroman-4-one]
viability at 3 days, 50 µM [1]: 95.3%
IC20 (1532NPTX): > 50 µM
IC50 (1532NPTX): > 50 µM
toxicity to NCI-60 cells (NCI-60 cell line panel): not toxic
% inhibition by competitor ([2]; 0.5 uM KBU2046-biotin): 80%
% inhibition by competitor ([2]; 10 uM KBU2046-biotin): 12%
organ damage, histological scoring ([3]; athymic mice, KBU2046 in chow, 35 days): No organ damage was observed
toxicity after oral dosing ([3]; oral doses up to 150 mg/kg, up to 35 days): no observed toxicity
organ weights, clinical chemistry and blood parameters [4]: No abnormal alterations

Source: publication PMC6014988, “Precision therapeutic targeting of human cancer cell motility” (Nature Communications, 2018)
